Source: US9416128B2, “Fused heterocyclic compounds as ion channel modulators” (Gilead Sciences, Inc., priority 2013, dated 2016)

What was measured:
[1] = molecular target: hNaV1.1 (SCN1A) (Homo sapiens, UniProt P35498); assay: Use-dependent inhibition of the CNS NaV1.1 sodium channel; assay type: cell-based; conditions: % inhibition, 25 Hz; for inhibition at 1 µM: use-dependent block at 1 uM, read-out: Nav1.1 UDB 25 Hz 1 uM; for inhibition at 10 µM: use-dependent block at 10 uM, read-out: Nav1.1 UDB 25 Hz 10 uM
Description: HEK-293 cells stably expressing wild-type (WT) hNaV1.1 (SCN1A, NCBI# AB09354) were obtained from Millipore (Cat. # CYL3009) were used to record INa. Cells are maintained with standard tissue culture procedures and stable channel expression is maintained with 400 ug/mL G418 in the culture medium. Unless otherwise noted, all reagents are purchased from Sigma-Aldrich (St Louis, Mo., U.S.A.).
Assays measuring Use-Dependent Block (UDB) of NaV1.2 are performed on an automated electrophysiology platform, QPatch 16X or QPatch HT (Sophion Bioscience, Copenhagen, Denmark), using the whole cell patch clamp technique to measure currents through the cell membrane. Series resistance compensation is set to 100% and series resistance and whole-cell compensation are performed automatically. Currents stored in the Sophion Bioscience Oracle database (Sophion Bioscience, Copenhagen, Denmark). Analysis is performed using QPatch Assay software and data are compiled in Excel 2010 (Microsoft, Seattle, Wash., U.S.A.).
The internal (pipette) solution consists of (in mM) 105 CsF, 10 NaF, 20 CsCl, 2 EGTA, 10 HEPES, 10 Dextrose with a pH of 7.35 and osmolarity of 300 mOsmol/kg. The external (bath) solution contains in (mM): 145 NaCl, 4 KCl, 1.8 CaCl2, 1 MgCl2, 10 dextrose, 10 HEPES, with a pH of 7.35 and osmolarity of 310 mOsmol/kg. Experiments are carried out at 23-25° C.
Compound stocks are routinely made by the Gilead Sample Bank in vials to 10 mM in dimethyl sulfoxide (DMSO). In some cases, when compounds are not soluble in DMSO, they are made in 100% ethanol. Stocks are sonicated as necessary. […]
Cells are allowed to stabilize for 10 min after establishment of the whole-cell configuration before current is measured. The test compound is applied 2 times at 60 second intervals. After the second compound addition, a 200 second wait period was imposed to allow for equilibration.
Leak currents are subtracted by using an online P/4 procedure and all currents are low-pass Bessel filtered at 5 kHz and digitized at […].
Use-dependent block of NaV1.2 peak current is measured during pulse number 20 of a voltage pulse train (0 mV, 20 ms, 20 pulses, 25 Hz) from a holding potential of −120 mV. Currents are normalized to the peak current recorded in response to the first pulse in each frequency train. The voltage protocol for UDB was performed in the absence and presence of compound and percentage inhibition was calculated with respect to the compound free condition. Results are presented as mean percentage inhibition and data analysis is performed using QPatch Assay Software 4.0, and Excel 2002 (Microsoft, Seattle, Wash., U.S.A.).

[2] = molecular target: wild-type human cardiac sodium channel, hNaV 1.5 (Late INa) (Homo sapiens, UniProt Q14524); assay: Late INa screening assay (whole cell patch clamp, QPatch, Tefluthrin-induced late current); assay type: cell-based; conditions: HEK293, % inhibition (percent block of late INa) at 1 uM; HEK293 hNaV1.5; 10 μM Tefluthrin; read-out: Nav1.5 Late INa 1 uM
Description: The cardiac late sodium current (Late INa) and peak sodium current (Peak INa) assays are performed on an automated electrophysiology platform, QPatch 16X or QPatch HT (Sophion Bioscience, Copenhagen, Denmark) using the whole cell patch clamp technique to measure currents through the cell membrane. The assay uses an HEK293 (human embryonic kidney) cell line heterologously expressing the wild-type human cardiac sodium channel, hNaV 1.5, purchased from Millipore (Billerica, Mass.). No beta subunits were coexpressed with the Na channel alpha subunit. Cells are maintained with standard tissue culture procedures and stable channel expression is maintained with 400 μg/mL Geneticin in the culture medium. Experiments are carried out at 23-25° C.
For both the Late INa and Peak INa assays, series resistance compensation is set to 100% and series resistance and whole-cell compensation are performed automatically. Currents are digitized at 25 kHz and low-pass filtered at 5 kHz and stored in the Sophion Bioscience Oracle database (Sophion Bioscience, Copenhagen, Denmark). Analysis is performed using QPatch Assay software and data are compiled in Excel 2010 (Microsoft, Seattle, Wash., U.S.A.).
Compound stocks are routinely made by the Gilead Sample Bank in vials to 10 mM in dimethyl sulfoxide (DMSO). In some cases, when compounds are not soluble in DMSO, they are made in 100% ethanol. Stocks are sonicated as necessary. The extracellular solution for screening Late INa is composed of: 140 mM NaCl, 4 mM KCl, 1.8 mM CaCl2, 1 mM MgCl2, 10 mM HEPES and 10 mM Dextrose with pH adjusted to 7.35 using NaOH. The intracellular solution contains: 105 mM CsF, 20 mM CsCl, 10 NaF, 2 mM EGTA, 10 mM HEPES and 10 mM Dextrose with pH adjusted to 7.35 with CsOH. Compounds are diluted in extracellular solution using a MicroLab Nimbus (Hamilton Robotics, Reno, Nev.) to between 0.3 and 3 μM in glass vials and transferred to glass well plates before robotic addition to the cells. The 0 mM Na extracellular solution (0Na-ECF) used at the end of each experiment for the Late INa and Peak INa assays to measure baseline current contains: 140 Choline-Cl; 4 mM KCl, 1.8 mM CaCl2; 1 mM MgCl2; 10 mM HEPES and 10 mM Dextrose with pH was adjusted to 7.35 with CsOH.
For the Late INa assay, sodium channels are activated every 10 seconds (0.1 Hz) by depolarizing the cell membrane to −20 mV for 250 milliseconds (ms) from a holding potential of −120 mV.
Compounds were tested to determine their activity in blocking the late sodium current. Late INa was generated by adding 10 μM Tefluthrin (pyrethroid) to the extracellular solution. For the purposes of the screening, Late INa is defined as the mean current between 240 ms and 265 ms during the voltage step to −20 mV. After establishing the whole cell recording configuration, Late INa activator is added to each well 4 times over a 15 minute period so that the late component of the Na current reaches a stable value. Compounds were then added (typically at 0.3 or 1 μM), in the presence of the Late INa activator, with 3 additions over the course of 5 minutes. Measurements were made at the end of exposure to the third compound addition and values were normalized to the current level when all Na^+ was removed from the extracellular solution after two additions of 0Na-ECF.
Results are reported as percent block of late INa and results were analyzed by incorporating rundown correction for the Late INa.

Chain of wild-type human cardiac sodium channel, hNaV 1.5 (Late INa) (Q14524 whole entry): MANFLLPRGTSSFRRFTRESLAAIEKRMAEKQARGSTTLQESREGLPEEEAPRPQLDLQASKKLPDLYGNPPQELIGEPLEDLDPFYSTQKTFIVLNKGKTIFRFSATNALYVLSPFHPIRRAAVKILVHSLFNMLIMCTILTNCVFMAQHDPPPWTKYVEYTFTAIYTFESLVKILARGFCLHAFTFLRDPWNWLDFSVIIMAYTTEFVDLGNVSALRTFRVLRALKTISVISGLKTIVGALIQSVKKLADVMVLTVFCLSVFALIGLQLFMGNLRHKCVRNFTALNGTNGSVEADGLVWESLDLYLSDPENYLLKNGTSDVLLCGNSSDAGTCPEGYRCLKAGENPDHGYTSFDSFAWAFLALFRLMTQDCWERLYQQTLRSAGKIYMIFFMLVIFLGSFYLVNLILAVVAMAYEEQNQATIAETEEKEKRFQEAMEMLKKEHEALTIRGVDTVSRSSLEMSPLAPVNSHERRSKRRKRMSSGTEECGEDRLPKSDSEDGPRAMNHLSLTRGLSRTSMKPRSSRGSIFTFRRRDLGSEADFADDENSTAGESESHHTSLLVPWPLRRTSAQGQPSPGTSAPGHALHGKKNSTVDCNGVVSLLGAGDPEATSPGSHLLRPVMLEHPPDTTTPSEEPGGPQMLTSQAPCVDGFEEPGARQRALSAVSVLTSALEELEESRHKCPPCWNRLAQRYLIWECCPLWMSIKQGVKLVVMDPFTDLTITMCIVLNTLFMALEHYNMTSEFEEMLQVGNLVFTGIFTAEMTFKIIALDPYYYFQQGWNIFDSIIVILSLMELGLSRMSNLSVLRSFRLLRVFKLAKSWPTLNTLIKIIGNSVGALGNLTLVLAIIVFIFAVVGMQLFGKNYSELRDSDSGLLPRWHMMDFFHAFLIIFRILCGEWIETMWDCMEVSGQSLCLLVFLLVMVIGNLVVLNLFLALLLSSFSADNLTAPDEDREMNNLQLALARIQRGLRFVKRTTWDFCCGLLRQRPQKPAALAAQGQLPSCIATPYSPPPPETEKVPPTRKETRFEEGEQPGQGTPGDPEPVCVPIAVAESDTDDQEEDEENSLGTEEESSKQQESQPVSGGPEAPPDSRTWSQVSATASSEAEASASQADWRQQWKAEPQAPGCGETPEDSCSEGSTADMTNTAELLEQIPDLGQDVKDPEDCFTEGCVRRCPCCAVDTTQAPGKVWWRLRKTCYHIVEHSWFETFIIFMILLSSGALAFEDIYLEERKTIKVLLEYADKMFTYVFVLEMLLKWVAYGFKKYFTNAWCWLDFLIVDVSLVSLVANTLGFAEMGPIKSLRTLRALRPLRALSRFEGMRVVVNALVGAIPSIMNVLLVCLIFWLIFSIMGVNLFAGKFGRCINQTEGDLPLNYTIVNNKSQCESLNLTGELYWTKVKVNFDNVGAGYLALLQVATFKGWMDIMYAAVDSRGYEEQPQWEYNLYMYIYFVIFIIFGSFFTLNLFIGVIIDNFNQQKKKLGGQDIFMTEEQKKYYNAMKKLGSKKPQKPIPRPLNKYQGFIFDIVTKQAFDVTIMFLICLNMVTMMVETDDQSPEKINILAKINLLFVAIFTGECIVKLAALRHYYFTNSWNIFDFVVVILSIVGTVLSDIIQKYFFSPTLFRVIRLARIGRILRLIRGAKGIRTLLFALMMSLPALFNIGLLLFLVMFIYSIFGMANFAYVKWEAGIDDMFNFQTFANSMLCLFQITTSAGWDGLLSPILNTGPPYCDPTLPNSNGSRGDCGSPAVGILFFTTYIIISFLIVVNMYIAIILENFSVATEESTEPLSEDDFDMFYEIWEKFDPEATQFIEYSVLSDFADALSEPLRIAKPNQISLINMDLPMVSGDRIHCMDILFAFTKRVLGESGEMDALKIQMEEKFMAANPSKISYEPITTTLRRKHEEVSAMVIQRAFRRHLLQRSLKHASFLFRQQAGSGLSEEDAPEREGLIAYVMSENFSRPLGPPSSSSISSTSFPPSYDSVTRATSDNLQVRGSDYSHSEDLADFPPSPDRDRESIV

| Compound | inhibition at 1 µM [1] [%] | inhibition at 10 µM [1] [%] | inhibition at 1 µM [2] [%] |
| --- | --- | --- | --- |
| Cc1csc(CN2Cc3cc(-c4ccc(OC(F)(F)F)cc4Cl)ccc3OC2=O)n1 [Example 57, 6-(2-chloro-4-(trifluoromethoxy)phenyl)-3-((4-methylthiazol-2-yl)methyl)-3,4-dihydro-2H-benzo[e][1,3]oxazin-2-one] | < 5 | 48.8 | 34.1 |
| Cc1csc(CN2Cc3cc(-c4ccc(Cl)c(F)c4)ccc3OC2=O)n1 [Example 59, 6-(4-chloro-3-fluorophenyl)-3-((4-methylthiazol-2-yl)methyl)-3,4-dihydro-2H-benzo[e][1,3]oxazin-2-one] | 20.7 | 39.9 | 50.3 |
| Cc1cnc(CN2Cc3cc(-c4ccc(OC(F)(F)F)cc4)ccc3OC2=O)nc1 [Example 12, 3-((5-methylpyrimidin-2-yl)methyl)-6-(4-(trifluoromethoxy)phenyl)-3,4-dihydro-2H-benzo[e][1,3]oxazin-2-one] | 7.5 | 73.9 | 50.5 |
| Cc1cnc(CN2Cc3cc(-c4ccc(C(F)(F)F)cc4)ccc3OC2=O)nc1 [Example 13, 3-((5-methylpyrimidin-2-yl)methyl)-6-(4-(trifluoromethyl)phenyl)-3,4-dihydro-2H-benzo[e][1,3]oxazin-2-one] | 37.5 | 88.8 | 49.6 |
| CC1c2cc(-c3ccc(Cl)c(F)c3)ccc2OC(=O)N1Cc1ncccn1 (stereo not drawn) [Example 11, 6-(4-chloro-3-fluorophenyl)-4-methyl-3-(pyrimidin-2-ylmethyl)-3,4-dihydro-2H-benzo[e][1,3]oxazin-2-one] | 21 | 81.1 | 32.5 |
| O=C1Oc2ccc(-c3ccc(Cl)c(F)c3)cc2CN1Cc1ncccn1 [Example 6, 6-(4-chloro-3-fluorophenyl)-3-(pyrimidin-2-ylmethyl)-3,4-dihydro-2H-benzo[e][1,3]oxazin-2-one] | 26.7 | 65.2 | 43.3 |
| COc1cc(OC(F)(F)F)ccc1-c1ccc2c(c1)CN(CCc1ncccn1)C(=O)O2 [Example 18, 6-(2-methoxy-4-(trifluoromethoxy)phenyl)-3-(2-(pyrimidin-2-yl)ethyl)-3,4-dihydro-2H-benzo[e][1,3]oxazin-2-one] | 16.9 | 73.4 | 31.4 |
| Cc1cc(OC(F)(F)F)ccc1-c1ccc2c(c1)CN(Cc1ccccn1)C(=O)O2 [Example 23, 6-(2-methyl-4-(trifluoromethoxy)phenyl)-3-(pyridin-2-ylmethyl)-3,4-dihydro-2H-benzo[e][1,3]oxazin-2-one] | 5.2 | 75.2 | 30.5 |
| CC1c2cc(-c3ccc(OC(F)(F)F)cc3)ccc2OC(=O)N1Cc1ncccn1 (stereo not drawn) [Example 48, 4-methyl-3-(pyrimidin-2-ylmethyl)-6-(4-(trifluoromethoxy)phenyl)-3,4-dihydro-2H-benzo[e][1,3]oxazin-2-one] | 32.5 | 73.3 | 53.2 |
| Cc1cnc(CN2Cc3cc(-c4ccc(C(F)(F)F)cc4F)ccc3OC2=O)nc1 [Example 41, 6-(2-fluoro-4-(trifluoromethyl)phenyl)-3-((5-methylpyrimidin-2-yl)methyl)-3,4-dihydro-2H-benzo[e][1,3]oxazin-2-one] | < 5 | 29 | 45.7 |
| O=C1Oc2ccc(-c3ccc(C4(C(F)(F)F)CC4)cc3)cc2CN1Cc1ncccn1 [Example 38, 3-(pyrimidin-2-ylmethyl)-6-(4-(1-(trifluoromethyl)cyclopropyl)phenyl)-3,4-dihydro-2H-benzo[e][1,3]oxazin-2-one] | 49 | 78.1 | 54.2 |
| Cc1csc(CN2Cc3cc(-c4ccc(OC(F)(F)F)cc4F)ccc3OC2=O)n1 [Example 55, 6-(2-fluoro-4-(trifluoromethoxy)phenyl)-3-((4-methylthiazol-2-yl)methyl)-3,4-dihydro-2H-benzo[e][1,3]oxazin-2-one] | < 5 | 55 | 35.3 |
| CCOc1cc(OC(F)(F)F)ccc1-c1ccc2c(c1)CN(Cc1ncccn1)C(=O)O2 [Example 40, 6-(2-ethoxy-4-(trifluoromethoxy)phenyl)-3-(pyrimidin-2-ylmethyl)-3,4-dihydro-2H-benzo[e][1,3]oxazin-2-one] | 22.6 | 71.3 | 49.4 |
| O=C1Oc2ccc(-c3ccc(C(F)(F)F)cc3)cc2CN1Cc1ccccn1 [Example 24, 3-(pyridin-2-ylmethyl)-6-(4-(trifluoromethyl)phenyl)-3,4-dihydro-2H-benzo[e][1,3]oxazin-2-one] | 44.9 | 79.6 | 55.8 |
| Cc1cccc(CN2Cc3cc(-c4ccc(OC(F)(F)F)cc4F)ccc3OC2=O)n1 [Example 47, 6-(2-fluoro-4-(trifluoromethoxy)phenyl)-3-((6-methylpyridin-2-yl)methyl)-3,4-dihydro-2H-benzo[e][1,3]oxazin-2-one] | < 5 | 69.2 | 52.8 |
| O=C1Oc2ccc(-c3ccc(OC(F)(F)F)cc3)cc2CN1Cc1ccccn1 [Example 20, 3-(pyridin-2-ylmethyl)-6-(4-(trifluoromethoxy)phenyl)-3,4-dihydro-2H-benzo[e][1,3]oxazin-2-one] | 29.1 | 82 | 53.7 |
